Active and inactive are the calls of the source. The rule behind the calls is not given here.
Columns and labels:
[1] = Cytotoxicity against human HDF-1 cells assessed as decrease in cell viability after 2 hrs by WST-1 assay; format: cell-based
[2] = Induction of apoptosis in human HDF-1 cells assessed as increase in caspase3/7 activity at 60 uM after 24 hrs by caspase Glo-3/7 assay; format: cell-based; details: hdf-1, 24 h
HDF-1 = experiment: Induction of cell migration in human HDF-1 cells after 8 hrs by wound healing assay; format: functional, cell-based
[3] = biological target: T1, Rho-associated protein kinase 2 (Homo sapiens, UniProt O75116); experiment: Inhibition of human N-terminal GST-tagged ROCK2 expressed in baculovirus-infected insect cells using long S6 kinase peptide as substrate by radiometric assay in presence of [32P]ATP
T1 sequence (O75116 whole entry): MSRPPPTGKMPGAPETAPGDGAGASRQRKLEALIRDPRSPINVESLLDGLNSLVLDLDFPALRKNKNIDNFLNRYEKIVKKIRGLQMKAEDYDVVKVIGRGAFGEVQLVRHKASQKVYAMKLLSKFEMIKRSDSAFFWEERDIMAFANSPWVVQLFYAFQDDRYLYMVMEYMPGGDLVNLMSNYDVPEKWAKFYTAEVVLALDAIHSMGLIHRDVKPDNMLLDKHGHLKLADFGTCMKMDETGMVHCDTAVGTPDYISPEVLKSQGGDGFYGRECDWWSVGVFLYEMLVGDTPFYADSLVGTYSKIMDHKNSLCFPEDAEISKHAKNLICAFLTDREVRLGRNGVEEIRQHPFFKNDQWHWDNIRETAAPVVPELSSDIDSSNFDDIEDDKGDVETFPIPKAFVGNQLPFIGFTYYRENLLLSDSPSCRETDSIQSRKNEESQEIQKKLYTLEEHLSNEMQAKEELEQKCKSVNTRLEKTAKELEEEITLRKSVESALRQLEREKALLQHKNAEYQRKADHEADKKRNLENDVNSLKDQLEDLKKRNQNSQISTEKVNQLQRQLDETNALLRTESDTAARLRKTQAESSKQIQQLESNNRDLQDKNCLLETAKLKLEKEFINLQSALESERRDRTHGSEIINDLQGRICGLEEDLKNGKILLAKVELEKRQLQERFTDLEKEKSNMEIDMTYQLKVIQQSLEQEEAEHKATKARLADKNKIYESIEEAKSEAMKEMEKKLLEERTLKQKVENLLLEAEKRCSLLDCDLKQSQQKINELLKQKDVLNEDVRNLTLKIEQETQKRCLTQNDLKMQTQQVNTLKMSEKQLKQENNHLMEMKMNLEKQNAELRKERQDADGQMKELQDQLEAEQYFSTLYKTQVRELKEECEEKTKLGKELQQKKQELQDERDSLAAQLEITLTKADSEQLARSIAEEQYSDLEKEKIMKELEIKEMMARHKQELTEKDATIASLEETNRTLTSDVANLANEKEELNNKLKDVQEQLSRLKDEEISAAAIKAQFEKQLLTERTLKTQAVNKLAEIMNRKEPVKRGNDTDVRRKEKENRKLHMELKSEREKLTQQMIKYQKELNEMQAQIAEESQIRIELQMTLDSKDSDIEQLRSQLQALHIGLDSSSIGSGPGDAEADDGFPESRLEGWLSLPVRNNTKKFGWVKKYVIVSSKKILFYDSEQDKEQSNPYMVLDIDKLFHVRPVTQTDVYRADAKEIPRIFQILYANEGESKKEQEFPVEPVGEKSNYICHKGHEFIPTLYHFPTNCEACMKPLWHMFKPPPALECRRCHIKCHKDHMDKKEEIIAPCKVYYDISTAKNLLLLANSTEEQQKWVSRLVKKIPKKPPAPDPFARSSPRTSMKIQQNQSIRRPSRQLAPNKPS

[4] = biological target: T1, Rho-associated protein kinase 2; experiment: Inhibition of human N-terminal GST-tagged ROCK2 expressed in baculovirus-infected insect cells using long S6 kinase peptide as substrate by radiometric assay in presence of [32P]ATP and 200 uM ATP
[5] = Inhibition of ROCK-catalysed MLC Thr18/Ser19 phosphorylation in rat A7r5 cells after 90 mins by ELISA; format: cell-based; details: A7R5, 1.5 h
[6] = Half life in human plasma by LC-MS/MS analysis; format: ADME, cell-free
Plasma [7] = experiment: Stability in human plasma by LC-MS/MS analysis in presence of carboxylesterase inhibitor BNPP; format: ADME, cell-free
Plasma [8] = experiment: Stability in human plasma by LC-MS/MS analysis in presence of arylesterase inhibitor DTNB; format: ADME, cell-free
Plasma [9] = experiment: Stability in human plasma by LC-MS/MS analysis in presence of 5 mM PON1 inhibitor, disodium EDTA; format: ADME, cell-free
Plasma [10] = experiment: Stability in human plasma after 120 mins by LC-MS/MS analysis in presence of generic serine protease/serine esterase inhibitor, PMSF; format: ADME, cell-free; details: 2 h
[11] = Stability in human plasma assessed as compound remaining after 60 mins by LC-MS/MS analysis; format: ADME, cell-free; details: read-out: Stability
[12] = Stability in human plasma assessed as compound remaining after 60 mins by LC-MS/MS analysis in presence of 5 uM cholinesterase inhibitor tacrine; format: ADME, cell-free; details: with tacrine (cholinesterase inhibitor), read-out: Stability
[13] = Induction of apoptosis in human HDF-1 cells assessed as increase in caspase3/7 activity at 40-100 uM after 24 hrs by caspase Glo-3/7 assay; format: cell-based; details: hdf-1, 24 h
Oryctolagus cuniculus [14] = experiment: Cmax in NewZealand white rabbit plasma assessed as 4-{[(2'-(Aminomethyl)-5'-{[(3-fluoropyridin-4-yl)amino]-carbonyl}biphenyl-3-yl)carbonyl]amino}benzoic Acid at 0.1 mg/kg, iv after 120 mins by LC-MS/MS analysis; format: ADME, organism-based; design: dose 0.1 mg/kg, route intravenous; details: in vivo, 2 h
[15] = biological target: T2, Protein kinase C epsilon type (Homo sapiens) (UniProt Q02156); experiment: Inhibition of human full length PKC epsilon expressed in insect cells using S25 PKC peptide as substrate at 100 nM by radiometric assay in presence of [32P]ATP
T2 sequence (whole entry): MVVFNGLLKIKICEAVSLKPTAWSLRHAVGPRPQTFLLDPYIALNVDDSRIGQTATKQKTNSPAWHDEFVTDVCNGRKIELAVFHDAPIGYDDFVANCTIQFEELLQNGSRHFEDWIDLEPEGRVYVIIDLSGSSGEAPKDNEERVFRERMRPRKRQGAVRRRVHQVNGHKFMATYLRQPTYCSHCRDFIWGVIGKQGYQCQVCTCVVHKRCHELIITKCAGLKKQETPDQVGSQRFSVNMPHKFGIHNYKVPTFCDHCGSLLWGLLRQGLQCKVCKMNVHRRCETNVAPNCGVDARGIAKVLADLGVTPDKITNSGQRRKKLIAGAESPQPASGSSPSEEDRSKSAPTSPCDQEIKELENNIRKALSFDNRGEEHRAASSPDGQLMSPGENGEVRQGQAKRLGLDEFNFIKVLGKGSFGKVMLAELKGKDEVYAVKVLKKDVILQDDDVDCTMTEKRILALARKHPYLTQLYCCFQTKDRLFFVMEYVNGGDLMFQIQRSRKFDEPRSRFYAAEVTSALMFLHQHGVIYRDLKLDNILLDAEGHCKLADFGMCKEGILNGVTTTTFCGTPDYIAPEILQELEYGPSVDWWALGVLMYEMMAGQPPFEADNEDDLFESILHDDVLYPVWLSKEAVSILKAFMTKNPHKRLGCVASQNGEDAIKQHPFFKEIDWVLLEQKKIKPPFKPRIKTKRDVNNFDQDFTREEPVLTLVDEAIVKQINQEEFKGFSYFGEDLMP

[16] = biological target: Protein kinase C eta type (Homo sapiens) (UniProt P24723); experiment: Inhibition of human N-terminal GST-tagged PKC eta expressed in baculovirus-infected insect cells using PKCe peptide as substrate at 100 nM by radiometric assay in presence of [32P]ATP and lipid activator
Chain of Protein kinase C eta type (Homo sapiens) (P24723 whole entry): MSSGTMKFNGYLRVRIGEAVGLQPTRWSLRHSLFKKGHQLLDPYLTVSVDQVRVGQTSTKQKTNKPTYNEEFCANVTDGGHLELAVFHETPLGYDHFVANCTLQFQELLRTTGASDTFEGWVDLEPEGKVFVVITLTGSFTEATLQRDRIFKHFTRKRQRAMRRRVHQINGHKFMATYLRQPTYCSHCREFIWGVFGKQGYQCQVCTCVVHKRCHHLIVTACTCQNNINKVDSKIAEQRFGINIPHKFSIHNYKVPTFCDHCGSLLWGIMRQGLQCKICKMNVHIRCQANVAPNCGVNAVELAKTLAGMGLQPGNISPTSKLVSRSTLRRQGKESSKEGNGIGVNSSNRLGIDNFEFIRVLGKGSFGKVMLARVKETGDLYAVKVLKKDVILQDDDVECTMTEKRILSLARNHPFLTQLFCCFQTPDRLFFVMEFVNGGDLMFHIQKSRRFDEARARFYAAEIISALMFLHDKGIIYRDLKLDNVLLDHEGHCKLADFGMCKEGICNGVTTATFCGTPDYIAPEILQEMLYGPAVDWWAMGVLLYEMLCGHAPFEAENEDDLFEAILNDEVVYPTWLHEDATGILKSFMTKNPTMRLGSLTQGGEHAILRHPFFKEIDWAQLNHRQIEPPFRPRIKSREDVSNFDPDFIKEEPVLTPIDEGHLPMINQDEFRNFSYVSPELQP

[17] = biological target: Protein kinase C delta type (Homo sapiens) (UniProt Q05655); experiment: Inhibition of human full length PKC delta expressed in insect cells using PKCe peptide as substrate at 100 nM by radiometric assay in presence of [32P]ATP and lipid activator
Homo sapiens = species: Homo sapiens; experiment: Inhibition of human full length C-terminal His6-tagged PKC theta P300L mutant expressed in baculovirus-infected insect cells using histone H1 as substrate at 100 nM by radiometric assay in presence of [32P]ATP and lipid activator
[18] = biological target: Ribosomal protein S6 kinase alpha-5 (Homo sapiens) (UniProt O75582); experiment: Inhibition of human full length N-terminal GST-tagged MSK1 expressed in insect cells using crosstide as substrate at 100 nM by radiometric assay in presence of [32P]ATP
Chain of Ribosomal protein S6 kinase alpha-5 (Homo sapiens) (O75582 whole entry, looked up): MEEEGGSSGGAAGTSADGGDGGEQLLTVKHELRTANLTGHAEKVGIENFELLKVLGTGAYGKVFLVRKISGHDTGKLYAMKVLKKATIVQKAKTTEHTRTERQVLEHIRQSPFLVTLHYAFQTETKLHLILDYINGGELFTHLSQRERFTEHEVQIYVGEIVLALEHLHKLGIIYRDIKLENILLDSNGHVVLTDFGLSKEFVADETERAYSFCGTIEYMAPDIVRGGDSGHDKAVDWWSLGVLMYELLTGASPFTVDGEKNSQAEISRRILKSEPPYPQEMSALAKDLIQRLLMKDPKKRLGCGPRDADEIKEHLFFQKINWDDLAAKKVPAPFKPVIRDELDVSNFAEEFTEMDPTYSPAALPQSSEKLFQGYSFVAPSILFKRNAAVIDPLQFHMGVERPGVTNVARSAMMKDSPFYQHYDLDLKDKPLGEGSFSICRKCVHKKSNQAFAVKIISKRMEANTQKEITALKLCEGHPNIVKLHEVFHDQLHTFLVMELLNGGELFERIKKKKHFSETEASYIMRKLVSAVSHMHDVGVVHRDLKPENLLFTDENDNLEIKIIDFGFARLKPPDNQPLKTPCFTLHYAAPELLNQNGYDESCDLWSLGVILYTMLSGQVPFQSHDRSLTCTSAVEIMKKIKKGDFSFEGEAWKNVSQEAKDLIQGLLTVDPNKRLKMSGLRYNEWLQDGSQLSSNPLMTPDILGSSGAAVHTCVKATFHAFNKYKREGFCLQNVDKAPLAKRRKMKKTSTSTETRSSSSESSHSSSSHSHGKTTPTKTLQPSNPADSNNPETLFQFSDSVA

[19] = biological target: Serine/threonine-protein kinase N1 (Homo sapiens) (UniProt Q16512); experiment: Inhibition of human full length N-terminal GST-tagged PRK1 expressed in insect cells using glycogen synthase derived peptide as substrate at 100 nM by radiometric assay in presence of [32P]ATP
Chain of Serine/threonine-protein kinase N1 (Homo sapiens) (Q16512 2-942 limits assumed): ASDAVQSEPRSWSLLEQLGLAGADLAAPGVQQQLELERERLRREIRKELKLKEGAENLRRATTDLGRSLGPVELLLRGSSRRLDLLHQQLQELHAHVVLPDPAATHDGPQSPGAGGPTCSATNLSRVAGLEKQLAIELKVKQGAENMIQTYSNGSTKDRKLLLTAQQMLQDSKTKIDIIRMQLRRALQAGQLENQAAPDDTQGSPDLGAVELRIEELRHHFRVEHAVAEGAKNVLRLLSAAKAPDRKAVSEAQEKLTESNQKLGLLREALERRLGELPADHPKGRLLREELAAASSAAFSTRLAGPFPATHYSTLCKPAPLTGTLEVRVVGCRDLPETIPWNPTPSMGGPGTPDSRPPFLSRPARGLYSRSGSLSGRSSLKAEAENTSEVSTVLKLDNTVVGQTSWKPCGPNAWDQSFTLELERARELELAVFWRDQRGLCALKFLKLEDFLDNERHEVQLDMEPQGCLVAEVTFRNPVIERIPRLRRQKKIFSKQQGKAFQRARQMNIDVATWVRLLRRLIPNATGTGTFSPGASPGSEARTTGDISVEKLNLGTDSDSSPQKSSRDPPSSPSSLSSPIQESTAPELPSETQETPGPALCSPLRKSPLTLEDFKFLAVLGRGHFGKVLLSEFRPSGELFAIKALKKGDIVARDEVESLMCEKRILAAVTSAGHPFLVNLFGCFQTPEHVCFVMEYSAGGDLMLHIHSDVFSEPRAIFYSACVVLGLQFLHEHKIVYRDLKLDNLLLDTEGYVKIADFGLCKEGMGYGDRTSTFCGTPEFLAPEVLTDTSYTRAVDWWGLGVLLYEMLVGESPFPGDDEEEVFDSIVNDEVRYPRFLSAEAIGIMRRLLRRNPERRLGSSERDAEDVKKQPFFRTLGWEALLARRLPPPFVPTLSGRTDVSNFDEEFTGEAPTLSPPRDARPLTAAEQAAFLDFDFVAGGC

[20] = biological target: Serine/threonine-protein kinase N2 (Homo sapiens) (UniProt Q16513); experiment: Inhibition of human full length N-terminal GST-tagged PRK2 expressed in insect cells using glycogen synthase derived peptide as substrate at 100 nM by radiometric assay in presence of [32P]ATP
Chain of Serine/threonine-protein kinase N2 (Homo sapiens) (Q16513 whole entry, looked up): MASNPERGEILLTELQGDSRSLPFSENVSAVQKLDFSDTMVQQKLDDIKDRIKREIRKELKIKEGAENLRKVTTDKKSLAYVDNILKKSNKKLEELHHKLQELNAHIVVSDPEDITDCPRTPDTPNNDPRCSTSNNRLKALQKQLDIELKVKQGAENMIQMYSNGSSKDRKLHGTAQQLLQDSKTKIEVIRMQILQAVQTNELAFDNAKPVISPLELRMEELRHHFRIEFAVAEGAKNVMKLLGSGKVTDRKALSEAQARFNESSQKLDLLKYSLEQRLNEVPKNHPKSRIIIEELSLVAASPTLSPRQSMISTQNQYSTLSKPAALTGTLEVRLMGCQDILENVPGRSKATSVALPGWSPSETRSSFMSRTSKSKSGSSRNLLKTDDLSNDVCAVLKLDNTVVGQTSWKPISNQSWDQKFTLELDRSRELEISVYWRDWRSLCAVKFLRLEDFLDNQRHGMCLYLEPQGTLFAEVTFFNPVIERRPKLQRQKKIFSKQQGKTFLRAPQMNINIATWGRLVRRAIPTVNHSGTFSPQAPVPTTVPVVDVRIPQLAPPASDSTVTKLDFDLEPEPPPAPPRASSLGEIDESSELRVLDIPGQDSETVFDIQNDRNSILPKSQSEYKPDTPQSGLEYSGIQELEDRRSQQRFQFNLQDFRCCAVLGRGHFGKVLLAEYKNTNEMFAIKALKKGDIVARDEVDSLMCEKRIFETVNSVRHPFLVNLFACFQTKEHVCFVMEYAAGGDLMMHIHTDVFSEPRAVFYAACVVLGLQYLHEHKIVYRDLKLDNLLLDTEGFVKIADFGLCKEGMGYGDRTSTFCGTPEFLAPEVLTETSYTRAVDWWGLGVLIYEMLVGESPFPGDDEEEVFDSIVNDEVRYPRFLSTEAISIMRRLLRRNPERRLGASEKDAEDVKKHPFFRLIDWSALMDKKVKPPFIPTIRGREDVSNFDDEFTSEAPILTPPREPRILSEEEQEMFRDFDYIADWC

[21] = biological target: T3, cAMP-dependent protein kinase catalytic subunit PRKX (Homo sapiens) (UniProt P51817); experiment: Inhibition of human full length N-terminal GST-tagged PRKX expressed in insect cells using kemptide as substrate at 100 nM by radiometric assay in presence of [32P]ATP
T3 sequence (whole entry): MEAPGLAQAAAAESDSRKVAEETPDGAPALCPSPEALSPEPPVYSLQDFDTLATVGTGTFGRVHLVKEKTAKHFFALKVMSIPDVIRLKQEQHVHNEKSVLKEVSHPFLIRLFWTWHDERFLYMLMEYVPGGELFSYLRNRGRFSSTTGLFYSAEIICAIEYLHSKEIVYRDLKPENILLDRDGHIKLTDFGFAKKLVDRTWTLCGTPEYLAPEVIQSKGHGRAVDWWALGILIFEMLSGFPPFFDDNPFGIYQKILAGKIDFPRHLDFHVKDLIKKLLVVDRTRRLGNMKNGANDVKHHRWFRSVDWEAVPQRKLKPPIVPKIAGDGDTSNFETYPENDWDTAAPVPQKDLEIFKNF

[22] = biological target: Protein kinase C eta type (Homo sapiens) (UniProt P24723); experiment: Inhibition of human N-terminal GST-tagged PKC eta expressed in baculovirus-infected insect cells using PKCe peptide as substrate at 10 nM by radiometric assay in presence of [32P]ATP and lipid activator
[23] = biological target: Serine/threonine-protein kinase N2 (Homo sapiens) (UniProt Q16513); experiment: Inhibition of human full length N-terminal GST-tagged PRK2 expressed in insect cells using glycogen synthase derived peptide as substrate at 10 nM by radiometric assay in presence of [32P]ATP
[24] = biological target: Rho-associated protein kinase 1 (Homo sapiens, UniProt Q13464); experiment: Inhibition of human N-terminal GST-tagged ROCK1 expressed in insect cells using long S6 kinase peptide as substrate by radiometric assay in presence of [32P]ATP
[25] = Apparent permeability across human Caco2 cells; format: ADME, cell-based; details: Caco-2
[26] = Lipophilicity, log D of the compound at pH 7.4; format: physicochemical; details: buffer
[27] = Half life in NewZealand white rabbit plasma by LC-MS/MS analysis; format: ADME, cell-free, Oryctolagus cuniculus; details: New Zealand white
[28] = Half life in human hepatocytes by LC-PDA-MSA analysis; format: ADME, cell-based, Hepatocyte
[29] = Half life in NewZealand white rabbit hepatocytes by LC-PDA-MSA analysis; format: ADME, cell-based, Oryctolagus cuniculus, Hepatocyte; details: New Zealand white
[30] = Stability in human hepatocytes assessed as compound remaining after 120 mins by LC-MS/MS analysis; format: ADME, cell-based, Hepatocyte; details: read-out: Stability
[31] = Stability in NewZealand white rabbit hepatocytes assessed as compound remaining after 120 mins by LC-MS/MS analysis; format: ADME, cell-based, Oryctolagus cuniculus, Hepatocyte; details: New Zealand white, read-out: Stability
[32] = Cmax in NewZealand white rabbit plasma at 0.1 mg/kg, iv after 1 min by LC-MS/MS analysis; format: ADME, organism-based, Oryctolagus cuniculus; design: dose 0.1 mg/kg, route intravenous; details: New Zealand white
[33] = Cmax in NewZealand white rabbit plasma at 0.1 mg/kg, iv after 5 mins by LC-MS/MS analysis; format: ADME, organism-based, Oryctolagus cuniculus; design: dose 0.1 mg/kg, route intravenous; details: New Zealand white
[34] = Cmax in NewZealand white rabbit plasma at 0.1 mg/kg, iv after 10 mins by LC-MS/MS analysis; format: ADME, organism-based, Oryctolagus cuniculus; design: dose 0.1 mg/kg, route intravenous; details: New Zealand white
[35] = Half life in NewZealand white rabbit plasma at 0.1 mg/kg, iv by LC-MS/MS analysis; format: ADME, organism-based, Oryctolagus cuniculus; design: dose 0.1 mg/kg, route intravenous; details: New Zealand white
[36] = Cmax in NewZealand white rabbit plasma at 0.1 mg/kg, iv after 30-60 mins by LC-MS/MS analysis; format: ADME, organism-based, Oryctolagus cuniculus; design: dose 0.1 mg/kg, route intravenous; details: New Zealand white
Oryctolagus cuniculus [37] = experiment: Cmax in NewZealand white rabbit plasma assessed as 4-{[(2'-(Aminomethyl)-5'-{[(3-fluoropyridin-4-yl)amino]-carbonyl}biphenyl-3-yl)carbonyl]amino}benzoic Acid at 0.1 mg/kg, iv after 10 mins by LC-MS/MS analysis; format: ADME, organism-based; design: dose 0.1 mg/kg, route intravenous; details: in vivo

## COC(=O)c1ccc(F)c(NC(=O)c2cccc(-c3cc(C(=O)Nc4ccncc4F)ccc3CN)c2)c1
[1]
  CC50 at 2 h: 45000 nM
[2]
  Activity: Toxic
HDF-1
  Activity: Dose-dependent effect
[3]
  IC50: 1.6 nM
[4]
  IC50: 46 nM
[5]
  EC50: 26 nM
[6]
  half-life: 18 min
Plasma [7]
  Stability: Unstable
Plasma [8]
  Stability: Unstable
Plasma [9]
  Stability: Unstable
Plasma [10]
  Stability: Stable
[11]
  remaining at 1 h: 13%
[12]
  remaining at 1 h: 98%

## NCc1ccc(C(=O)Nc2ccncc2F)cc1-c1cccc(C(=O)Nc2ccc(CC(=O)OC3CCCC3)cc2)c1
[1]
  CC50 at 2 h: 29000 nM
[13]
  Activity: Toxic
HDF-1
  Activity: Dose-dependent effect
[3]
  IC50: < 1 nM
[4]
  IC50: 1.3 nM
[5]
  EC50: 26 nM
[6]
  half-life: 7 min
[11]
  remaining at 1 h: 2%
[12]
  remaining at 1 h: 100%

## COC(=O)c1ccc(NC(=O)c2cccc(-c3cc(C(=O)Nc4ccncc4F)ccc3CN)c2)cc1
Oryctolagus cuniculus [14]
  Cmax: > 35 nM
[15]
  inhibition: Active
[16]
  inhibition: Active
[17]
  inhibition: Active
Homo sapiens
  inhibition: Active
[18]
  inhibition: Active
[19]
  inhibition: Active
[20]
  inhibition: Active
[21]
  inhibition: Active
[22]
  inhibition: > 50%
[23]
  inhibition: > 50%
[1]
  CC50 at 2 h: 46000 nM
[2]
  Activity: Toxic
HDF-1
  Activity: Dose-dependent effect
[24]
  IC50: < 1 nM
[3]
  IC50: < 1 nM
[4]
  IC50: 4.1 nM
[5]
  EC50: 3 nM
[6]
  half-life: > 120 min
[25]
  Papp: 0.8 ×10⁻⁶ cm/s
[26]
  logD: 2.74
[27]
  half-life: > 120 min
[28]
  half-life: 12 min
[29]
  half-life: 12 min
[30]
  remaining at 2 h: 2.4%
[31]
  remaining at 2 h: 0.4%
[32]
  Cmax: 803 nM
[33]
  Cmax: 176 nM
[34]
  Cmax: 57 nM
[35]
  half-life: 22 min
[36]
  Cmax: > 8 nM
Oryctolagus cuniculus [37]
  Cmax: 255 nM

From ChEMBL document CHEMBL3425434 (J Med Chem, 2015)
